# KR20180060184A, “Ccsp-2와 특이적으로 결합하는 펩타이드 및 이의 용도” (재단법인 아산사회복지재단, priority 2016, dated 2018)
# pKd: −log10 of the molar value. Residues, ends and D or L forms follow the SMILES beside them.
# Biological target: T1, CCSP-2 (Homo sapiens, UniProt Q5GFL6)
# T1 construct: His tag; made in house; host or cells: CCSP-2-overexpressing HeLa cell line (provided by Case Western Reserve University); the secreted protein was captured from the conditioned medium on Ni-NTA agarose
# T1 sequence (Q5GFL6 24-755): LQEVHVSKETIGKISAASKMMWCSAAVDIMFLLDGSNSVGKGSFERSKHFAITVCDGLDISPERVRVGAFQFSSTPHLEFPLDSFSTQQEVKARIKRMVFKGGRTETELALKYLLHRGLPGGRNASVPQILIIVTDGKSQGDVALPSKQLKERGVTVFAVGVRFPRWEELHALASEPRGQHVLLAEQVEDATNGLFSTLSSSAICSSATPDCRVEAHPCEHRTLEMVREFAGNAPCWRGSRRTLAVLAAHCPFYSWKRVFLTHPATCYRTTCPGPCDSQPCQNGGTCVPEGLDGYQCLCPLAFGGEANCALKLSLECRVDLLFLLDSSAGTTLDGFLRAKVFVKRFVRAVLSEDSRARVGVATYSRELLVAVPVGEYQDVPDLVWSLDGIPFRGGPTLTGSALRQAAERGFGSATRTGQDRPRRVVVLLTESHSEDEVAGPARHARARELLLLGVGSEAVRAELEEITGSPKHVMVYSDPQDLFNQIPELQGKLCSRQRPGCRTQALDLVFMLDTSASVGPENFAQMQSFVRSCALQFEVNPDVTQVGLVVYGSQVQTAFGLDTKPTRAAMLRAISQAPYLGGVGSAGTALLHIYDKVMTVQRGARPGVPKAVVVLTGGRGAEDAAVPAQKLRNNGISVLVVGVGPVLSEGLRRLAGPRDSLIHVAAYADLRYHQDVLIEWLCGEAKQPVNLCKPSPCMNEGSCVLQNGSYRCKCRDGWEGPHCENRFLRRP
# Assay: Phage display biopanning on purified CCSP-2 and sequencing of selected clones
# Assay type: binding
# Conditions: after 4 rounds of panning on CCSP-2
row,Compound,"빈도 (frequency among the 56 sequences, percent) [%]"
1,NTGSPYE [MSJ1],16.1
2,WWNPLRP [MSJ10],12.5

# Biological target: T2, CCSP-2 단백질 (Homo sapiens, UniProt Q5GFL6)
# T2 sequence (Q5GFL6 24-755): T1 sequence (Q5GFL6 24-755)
# Assay: Fluorescence correlation spectroscopy (FCS), dissociation constant with CCSP-2 protein
# Assay type: binding
# Conditions: (peptide)-(GGGSK)-FITC-NH2 conjugate; CCSP-2 0-300 uM; Fig. 5; read-out: 해리상수 (Dissociation constant, Kd)
row,Compound,pKd
1,"N=C(N)NCCC[C@H](NC(=O)[C@H](Cc1ccccc1)NC(=O)[C@H](CCCCN)NC(=O)[C@H](CO)NC(=O)[C@H](Cc1ccccc1)NC(=O)[C@@H](N)CCC(=O)O)C(=O)N[C@@H](CO)C(=O)O [MSJ2, EFSKFRS] (H-EFSKFRS-OH)",4.26
2,"CSCC[C@H](N)C(=O)N[C@@H](CO)C(=O)N[C@H](C(=O)NCC(=O)N[C@@H](CC(C)C)C(=O)N[C@@H](CO)C(=O)N[C@@H](CO)C(=O)O)[C@@H](C)O [MSJ3, MSTGLSS] (H-MSTGLSS-OH)",4.60
3,"CC(C)C[C@H](NC(=O)[C@H](CCCCN)NC(=O)[C@@H](N)CC(C)C)C(=O)NCC(=O)N[C@@H](CCC(=O)O)C(=O)N[C@@H](CCCCN)C(=O)N[C@@H](Cc1c[nH]c2ccccc12)C(=O)O [MSJ6, LKLGEKW] (H-LKLGEKW-OH)",4.21
4,"N=C(N)NCCC[C@H](NC(=O)[C@H](CC(N)=O)NC(=O)[C@H](Cc1ccccc1)NC(=O)[C@H](CO)NC(=O)[C@H](CO)NC(=O)[C@H](Cc1ccc(O)cc1)NC(=O)CN)C(=O)O [MSJ11, GYSSFNR] (H-GYSSFNR-OH)",4.21
